Read-outs that look alike come from different tables or passages of the source.
Experiments:
Phytophthora infestans = assay: whole plant or invertebrate; assay type: in vivo; settings: in Solanum lycopersicum, foliar, 96 h, read-out: control of fungal infection
[1] = system: Erysiphe graminis f.sp. tritici; assay: Leaf disk assay, Erysiphe graminis f.sp. tritici (wheat powdery mildew); assay type: in vivo; settings: Blumeria graminis, foliar, 96 h, read-out: control of fungal infection
Septoria nodorum = assay: Leaf disk assay, Septoria nodorum (wheat glume blotch); assay type: in vivo; settings: Parastagonospora nodorum, foliar, 96 h, read-out: control of fungal infection
Plasmopara viticola = assay: Leaf disk assay, Plasmopara viticola (downy mildew of grapevine); assay type: in vivo; settings: foliar, 168 h, read-out: control of fungal infection
Pyricularia oryzae = assay: whole plant or invertebrate; assay type: in vivo; settings: foliar, 96 h, read-out: control of fungal infection
Pythium ultimum = Pythium ultimum (damping off) growth inhibition in potato dextrose broth, photometric; assay type: cell-based; settings: Globisporangium ultimum, read-out: control of fungal infection
[2] = 200 ppm, wheat leaf segments, preventive, four days after inoculation

C#CC(C)(C)NC(=O)C(Oc1cc(C)c2ncc(Br)cc2c1)SC (stereo not drawn) [2(4), 2-(3-Bromo-8-methyl-quinolin-6-yloxy)-N-(1,1-dimethyl-prop-2-ynyl)-2-methylsulfanyl-acetamide]
≥ 60%: pest or weed control at 200 ppm (Phytophthora infestans) | pest or weed control at 200 ppm [1, 2] | pest or weed control at 200 ppm (Septoria nodorum; [2]) | pest or weed control at 200 ppm (Plasmopara viticola; 200 ppm, grapevine leaf disks, preventive, seven days after inoculation) | pest or weed control at 200 ppm (Pyricularia oryzae) | inhibition of growth at 20 ppm (Pythium ultimum; 20 ppm, inhibition of growth after 48 hours at 24° C.)

CC#CC(C)(C)NC(=O)C(Oc1cc(C)c2ncc(Cl)cc2c1)SC (stereo not drawn) [18(4), 2-(3-Chloro-8-methyl-quinolin-6-yloxy)-N-(1,1-dimethyl-but-2-ynyl)-2-methylsulfanyl-acetamide]
≥ 60%: pest or weed control at 200 ppm (Phytophthora infestans) | pest or weed control at 200 ppm [1] | pest or weed control at 200 ppm (Septoria nodorum) | pest or weed control at 200 ppm (Plasmopara viticola) | pest or weed control at 200 ppm (Pyricularia oryzae) | inhibition of growth at 20 ppm (Pythium ultimum; 48 h)

— US20100256183A1, “FUNGICIDAL 2-ALKYLTHIO-2-QUINOLINYLOXY-ACETAMIDE DERIVATIVES” (priority 2007, published 2010)
